The values below come from publication doi:10.1101/2024.09.05.611349v1 (biorxiv, 2024).

Molecules are shown by their SMILES. Values after ≈ are worked out from the molar mass of the structure shown.

The test system of data set [1] is Staphylococcus epidermidis MSSE 15-58. The data set can be described thus: microbe, parasite or virus in culture. Details: species or system gram-positive clinical isolates. Particulars: Staphylococcus epidermidis, MSSE1558, read-out: MIC(μg/ml) / 1b.
The test system of data set [2] is Staphylococcus epidermidis MSSE 15-3. The data set can be described thus: microbe, parasite or virus in culture. Details: species or system gram-positive clinical isolates. Particulars: Staphylococcus epidermidis, MSSE153, read-out: MIC(μg/ml) / 1b.
In data set [3] the test system is Staphylococcus epidermidis MSSE 15-64. The data set can be described thus: microbe, parasite or virus in culture. Details: species or system gram-positive clinical isolates. To be noted: Staphylococcus epidermidis, MSSE1564, read-out: MIC(μg/ml) / 1b.
The test system of data set [4] is Staphylococcus epidermidis MSSE 15-61. The data set can be described thus: microbe, parasite or virus in culture. Details: species or system gram-positive clinical isolates. To be noted: Staphylococcus epidermidis, MSSE1561, read-out: MIC(μg/ml) / 1b.
Data set [5] has as its system Staphylococcus epidermidis MSSE 15-2. The data set can be described thus: microbe, parasite or virus in culture. To be noted: Staphylococcus epidermidis, MSSE152, read-out: MIC(μg/ml) / 1b. Details: species or system gram-positive clinical isolates.
For data set [6], the system named is Staphylococcus epidermidis MSSE 15-4. The data set can be described thus: microbe, parasite or virus in culture. Details: species or system gram-positive clinical isolates. Particulars: Staphylococcus epidermidis, MSSE154, read-out: MIC(μg/ml) / 1b.
For data set [7], the system named is Staphylococcus epidermidis MSSE 15-59. The data set can be described thus: microbe, parasite or virus in culture. Details: species or system gram-positive clinical isolates. Particulars: Staphylococcus epidermidis, MSSE1559, read-out: MIC(μg/ml) / 1b.
Another data set can be described thus: in vitro. Particulars: Mouse liver microsomes.

Consider `CCCCCOc1ccc(C(=O)NNC(=S)NC(C)=O)cc1` [1b, N-(2-(4-(n-pentoxy)benzoyl)hydrazine-1-carbonothioyl)acetamide], for which the MIC in data set [1] came out at 1 µg/mL (≈ 3.09 µM); in data set [2], 1 µg/mL (≈ 3.09 µM); in data set [3], 8 µg/mL (≈ 24.7 µM); in data set [4] it was 1 µg/mL (≈ 3.09 µM); in data set [5] it was 1 µg/mL (≈ 3.09 µM); in data set [6], 1 µg/mL (≈ 3.09 µM). Further, the MIC in data set [7] came out at 1 µg/mL (≈ 3.09 µM). Also, the “Mouse liver microsomes T1/2” value in “in vitro” is 28.3 min.
